Experimental data: US6706740B2, “Fungicidal heterocyclic aromatic amides and their compositions, methods of use and preparation” (Dow AgroSciences LLC, priority 1999, dated 2004)

How the values were obtained:
[1] = tested on: Magnaporthe grisea (Pyricularia oryzae—PYRIOR); test: microbe, parasite or virus in culture; assay type: cell-based; settings: Pyricularia oryzae, read-out: PYRIOR in vitro Growth Inhibition
[2] = tested on: Rhizoctonia solani (RHIZSO); test: microbe, parasite or virus in culture; assay type: cell-based; settings: Rhizoctonia solani, read-out: RHIZSO in vitro Growth Inhibition
[3] = tested on: Mycosphaerella graminicola (Septoria tritici—SEPTTR); test: In vitro fungal growth inhibition, Mycosphaerella graminicola (SEPTTR); assay type: cell-based; settings: Zymoseptoria tritici; 25 ppm in growth medium; read-out: SEPTTR in vitro Growth Inhibition
[4] = tested on: Stagonospora nodorum (Leptosphaeria nodorum—LEPTNO); test: In vitro fungal growth inhibition, Stagonospora nodorum (LEPTNO); assay type: cell-based; settings: Leptosphaeria; 25 ppm in growth medium; read-out: LEPTNO in vitro Growth Inhibition
Ustilago maydis (USTIMA) = test: microbe, parasite or virus in culture; assay type: cell-based; settings: Mycosarcoma maydis, read-out: USTIMA in vitro Growth Inhibition
[5] = tested on: Phytophthora infestans (PHYTIN); test: microbe, parasite or virus in culture; assay type: cell-based; settings: Phytophthora infestans, read-out: PHYTIN in vitro Growth Inhibition
[6] = tested on: Phytophthora infestans—PHYTIN; test: whole plant or invertebrate; assay type: in vivo; settings: Phytophthora, in Solanum lycopersicum, 24 h, read-out: PHYTIN in vivo 1 Day Protectant
[7] = tested on: Puccinia recondita—PUCCRT; test: Brown Rust of Wheat, in vivo whole plant, 24 Hour Protectant; settings: 100 ppm spray, 24 hour protectant, wheat, control of fungal infection vs untreated plants; for pest or weed control at 100 ppm: Puccinia, read-out: PUCCRT in vivo 1 Day Protectant
Erysiphe graminis—ERYSGT = test: Powdery Mildew of Wheat, in vivo whole plant, 24 Hour Protectant; settings: Erysiphe; 100 ppm spray, 24 hour protectant, wheat; control of fungal infection vs untreated plants; read-out: ERYSGT in vivo 1 Day Protectant
Septoria tritici—SEPTTR = test: Leaf Blotch of Wheat, in vivo whole plant, 24 Hour Protectant; settings: Zymoseptoria tritici, 24 h, 100 ppm spray, 24 hour protectant, wheat; control of fungal infection vs untreated plants; read-out: SEPTTR in vivo 1 Day Protectant
[8] = tested on: Leptosphaeria nodorum—LEPTNO; test: Glume Blotch of Wheat, in vivo whole plant, 24 Hour Protectant; settings: Leptosphaeria; 100 ppm spray, 24 hour protectant, wheat; control of fungal infection vs untreated plants; read-out: LEPTNO in vivo 1 Day Protectant

Row | Structure (SMILES) | inhibition at 25 ppm [1] | inhibition at 25 ppm [2] | inhibition at 25 ppm [3] | inhibition at 25 ppm [4] | inhibition at 25 ppm (Ustilago maydis (USTIMA)) | inhibition at 25 ppm [5] | pest or weed control at 100 ppm [6] | pest or weed control at 100 ppm [7] | pest or weed control at 100 ppm (Erysiphe graminis—ERYSGT) | pest or weed control at 100 ppm (Septoria tritici—SEPTTR) | pest or weed control at 100 ppm [8] | PUCCRT in vivo 1 Day Protectant [7]
1 | O=C(NCC1CCCCC1)c1ncccc1O [Compound 202] | > 80% | < 80% | < 80% | < 80% | < 80% | > 80% | < 25% | < 25% | < 25% | < 25% | < 25% | –
2 | CC1(C)CC(NC(=O)c2ncccc2O)CC(C)(C2CC2)C1 (stereo not drawn) [Compound 204] | < 80% | < 80% | < 80% | < 80% | < 80% | < 80% | < 25% | < 25% | < 25% | 25 to 74% | < 25% | –
3 | CC1(C)CC(NC(=O)c2ncccc2O)CC(C)(C)C1=O [Compound 205] | < 80% | < 80% | < 80% | < 80% | < 80% | < 80% | < 25% | < 25% | < 25% | < 25% | < 25% | –
4 | O=C(N[C@H]1CC2CC1[C@@H]1CCC[C@H]21)c1ncccc1O (stereo partly drawn) [Compound 206] | > 80% | > 80% | > 80% | > 80% | < 80% | < 80% | < 25% | < 25% | < 25% | < 25% | < 25% | –
5 | C[C@H]1C2CC([C@H]3CCC[C@@H]23)[C@@H]1NC(=O)c1ncccc1O (stereo partly drawn) [Compound 207] | > 80% | < 80% | > 80% | > 80% | < 80% | < 80% | < 25% | < 25% | < 25% | < 25% | < 25% | –
6 | O=C(Nc1ccc(Cl)cc1)c1ncccc1O [Compound 213] | < 80% | < 80% | > 80% | < 80% | < 80% | > 80% | 25 to 74% | – | < 25% | < 25% | < 25% | + +
7 | O=C(Nc1cccc(C(F)(F)F)c1)c1ncccc1O [Compound 214] | < 80% | < 80% | < 80% | < 80% | < 80% | < 80% | < 25% | < 25% | < 25% | < 25% | < 25% | –
8 | Cc1cc(C)cc(NC(=O)c2ncccc2O)c1 [Compound 215] | < 80% | < 80% | > 80% | < 80% | < 80% | < 80% | < 25% | < 25% | < 25% | < 25% | < 25% | –
9 | Cc1cccc(CNC(=O)c2ncccc2O)c1 [Compound 222] | < 80% | < 80% | < 80% | < 80% | < 80% | < 80% | < 25% | 25 to 74% | < 25% | < 25% | < 25% | –
